US9963442B2, “Pyridones as herbicides” (E I DU PONT DE NEMOURS AND COMPANY, priority 2014, dated 2018)

Legend:
Format in all cases: in vivo
rice (Oryza sativa) = assay: Test B flooded paddy test; set-up: key: 0 = no effect, 100 = complete control; conditions: Flood, 250 g ai/ha applied to paddy water at 2-leaf stage; visually evaluated after 13 to 15 days; scale 0 (no effect) to 100 (complete control)
Summary of the method: (§1)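 2-leaf plants; flood 3 cm over soil; compound into paddy water; depth held. Greenhouse 13–15 d. Visual rating vs controls, 0 (no effect) to 100 (complete control); dash = not tested.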

[1] = test system: sedge, umbrella (small-flower umbrella sedge, Cyperus difformis); assay: Test B flooded paddy test; set-up: key: 0 = no effect, 100 = complete control; conditions: Flood, 250 g ai/ha applied to paddy water at 2-leaf stage; visually evaluated after 13 to 15 days; scale 0 (no effect) to 100 (complete control)
Summary of the method: as §1

[2] = test system: blackgrass (Alopecurus myosuroides); assay: Test A postemergence application; conditions: approx. 10 days
Summary of the method: (§2)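 Ratings reflect visual injury compared with untreated controls roughly 10 days after treatment, scored 0 (no effect) to 100 (complete control). Applications were preemergence soil sprays or postemergence sprays on young one- to two-leaf plants.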

[3] = test system: galium (catchweed bedstraw, Galium aparine); assay: Test A postemergence application; conditions: approx. 10 days
Summary of the method: as §2

[4] = test system: ragweed (common ragweed, Ambrosia elatior); assay: Test A postemergence application; conditions: approx. 10 days
Summary of the method: as §2

[5] = test system: wheat (Triticum aestivum); assay: Test A postemergence application; conditions: approx. 10 days
Summary of the method: as §2

kochia (Kochia scoparia) [6] = assay: Test A postemergence application; conditions: approx. 10 days
Summary of the method: as §2

[7] = test system: barnyardgrass (Echinochloa crus-galli); assay: Test A postemergence application; conditions: approx. 10 days
Summary of the method: as §2

[8] = test system: pigweed (Amaranthus retroflexus); assay: Test A postemergence application; conditions: approx. 10 days
Summary of the method: as §2

corn (Zea mays) = assay: Test A postemergence application; conditions: approx. 10 days
Summary of the method: as §2

[9] = test system: Italian ryegrass (Lolium multiflorum); assay: Test A postemergence application; conditions: approx. 10 days
Summary of the method: as §2

[10] = test system: giant foxtail (Setaria faberii); assay: Test A postemergence application; conditions: approx. 10 days
Summary of the method: as §2

[11] = test system: ragweed (common ragweed, Ambrosia elatior); assay: Test A preemergence, directed soil spray; conditions: approx. 10 days
Summary of the method: as §2

kochia (Kochia scoparia) [12] = assay: Test A preemergence, directed soil spray; conditions: approx. 10 days
Summary of the method: as §2

[13] = test system: barnyardgrass (Echinochloa crus-galli); assay: Test A preemergence, directed soil spray; conditions: approx. 10 days
Summary of the method: as §2

[14] = test system: pigweed (Amaranthus retroflexus); assay: Test A preemergence, directed soil spray; conditions: approx. 10 days
Summary of the method: as §2

[15] = test system: Italian ryegrass (Lolium multiflorum); assay: Test A preemergence, directed soil spray; conditions: approx. 10 days
Summary of the method: as §2

[16] = test system: giant foxtail (Setaria faberii); assay: Test A preemergence, directed soil spray; conditions: approx. 10 days
Summary of the method: as §2

[17] = test system: lambsquarters (Chenopodium album); assay: Test C postemergence; conditions: scale 0 to 100, 0 is no effect, 100 is complete control
Excerpt: (§3) Seeds of plant species selected from blackgrass (Alopecurus myosuroides), Italian ryegrass (Lolium multiflorum), winter wheat (Triticum aestivum), galium (catchweed bedstraw, Galium aparine), corn (Zea mays), large (Lg) crabgrass (Digitaria sanguinalis), giant foxtail (Setaria faberii), johnsongrass (Sorghum halepense), lambsquarters (Chenopodium album), morningglory (Ipomoea coccinea), yellow nutsedge (Cyperus esculentus), pigweed (Amaranthus retroflexus), ragweed (common ragweed, Ambrosia elatior), soybean (Glycine max), barnyardgrass (Echinochloa crus-galli), oilseed rape (Brassica napus), waterhemp (common waterhemp, Amaranthus rudis), and velvetleaf (Abutilon theophrasti) were planted into a blend of loam soil and sand and treated preemergence with test chemicals formulated in a non-phytotoxic solvent mixture which included a surfactant. At the same time, plants selected from these crop and weed species and also chickweed (common chickweed, Stellaria media), kochia (Kochia scoparia), and wild oat (Avena fatua), were planted in pots containing Sunshine Redi-Earth® planting medium comprising spaghnum peat moss, vermiculite, starter nutrients and dolomitic limestone and treated with postemergence applications of test chemicals formulated in the same manner. Plants ranged in height from 2 to 18 cm (1- to 4-leaf stage) for postemergence treatments. Treated plants and controls were maintained in a greenhouse for 13 to 15 days, after which time all species were compared to controls and visually evaluated. Plant response ratings, summarized in Table C, are based on a scale of 0 to 100 where 0 is no effect and 100 is complete control. A dash (-) response means no test result.

soybean (Glycine max) = assay: Test C postemergence; conditions: scale 0 to 100, 0 is no effect, 100 is complete control
Excerpt: as §3

wild oat (Avena fatua) = assay: Test C postemergence; conditions: scale 0 to 100, 0 is no effect, 100 is complete control
Excerpt: as §3

`O=c1cccc(Oc2ncc(Cl)cn2)n1-c1ncc(Cl)cn1` [Compound 6] was tested, and the “Plant response rating, Rice” value (rice (Oryza sativa)) was 0, the “Plant response rating, Sedge, Umbrella” value [1] was 85 and the “Plant response rating (0 to 100 scale, 0 no effect, 100 complete control), Blackgrass” value ([2]; 31 g ai/ha) was 10. For the same compound, the “Plant response rating (0 to 100 scale, 0 no effect, 100 complete control), Blackgrass” value ([2]; 125 g ai/ha) was 50, the “Plant response rating (0 to 100 scale, 0 no effect, 100 complete control), Galium” value ([3]; 31 g ai/ha) was 60 and the “Plant response rating (0 to 100 scale, 0 no effect, 100 complete control), Galium” value ([3]; 125 g ai/ha) was 90. For the same compound, the “Plant response rating (0 to 100 scale, 0 no effect, 100 complete control), Ragweed” value ([4]; 31 g ai/ha) was 30, the “Plant response rating (0 to 100 scale, 0 no effect, 100 complete control), Ragweed” value ([4]; 125 g ai/ha) was 50 and the “Plant response rating (0 to 100 scale, 0 no effect, 100 complete control), Wheat” value ([5]; 31 g ai/ha) was 0. For the same compound, the “Plant response rating (0 to 100 scale, 0 no effect, 100 complete control), Wheat” value ([5]; 125 g ai/ha) was 0, the “Plant response rating (0 to 100 scale, 0 no effect, 100 complete control), Kochia” value (kochia (Kochia scoparia) [6]; 31 g ai/ha) was 80 and the “Plant response rating (0 to 100 scale, 0 no effect, 100 complete control), Kochia” value (kochia (Kochia scoparia) [6]; 125 g ai/ha) was 90. For the same compound, the “Plant response rating (0 to 100 scale, 0 no effect, 100 complete control), Barnyardgrass” value ([7]; 31 g ai/ha) was 10, the “Plant response rating (0 to 100 scale, 0 no effect, 100 complete control), Barnyardgrass” value ([7]; 125 g ai/ha) was 30 and the “Plant response rating (0 to 100 scale, 0 no effect, 100 complete control), Pigweed” value ([8]; 31 g ai/ha) was 80. The “Plant response rating (0 to 100 scale, 0 no effect, 100 complete control), Pigweed” value ([8]; 125 g ai/ha) was 90, the “Plant response rating (0 to 100 scale, 0 no effect, 100 complete control), Corn” value (corn (Zea mays); 31 g ai/ha) was 0 and the “Plant response rating (0 to 100 scale, 0 no effect, 100 complete control), Corn” value (corn (Zea mays); 125 g ai/ha) was 20. For the same compound, the “Plant response rating (0 to 100 scale, 0 no effect, 100 complete control), Ryegrass, Italian” value ([9]; 31 g ai/ha) was 0, the “Plant response rating (0 to 100 scale, 0 no effect, 100 complete control), Ryegrass, Italian” value ([9]; 125 g ai/ha) was 20 and the “Plant response rating (0 to 100 scale, 0 no effect, 100 complete control), Foxtail, Giant” value ([10]; 31 g ai/ha) was 10. For the same compound, the “Plant response rating (0 to 100 scale, 0 no effect, 100 complete control), Foxtail, Giant” value ([10]; 125 g ai/ha) was 60, the “Plant response rating (0 to 100 scale, 0 no effect, 100 complete control), Ragweed” value ([11]; 31 g ai/ha) was 70 and the “Plant response rating (0 to 100 scale, 0 no effect, 100 complete control), Ragweed” value ([11]; 125 g ai/ha) was 80. For the same compound, the “Plant response rating (0 to 100 scale, 0 no effect, 100 complete control), Kochia” value (kochia (Kochia scoparia) [12]; 31 g ai/ha) was 60, the “Plant response rating (0 to 100 scale, 0 no effect, 100 complete control), Kochia” value (kochia (Kochia scoparia) [12]; 125 g ai/ha) was 100 and the “Plant response rating (0 to 100 scale, 0 no effect, 100 complete control), Barnyardgrass” value ([13]; 31 g ai/ha) was 20. For the same compound, the “Plant response rating (0 to 100 scale, 0 no effect, 100 complete control), Barnyardgrass” value ([13]; 125 g ai/ha) was 70, the “Plant response rating (0 to 100 scale, 0 no effect, 100 complete control), Pigweed” value ([14]; 31 g ai/ha) was 80 and the “Plant response rating (0 to 100 scale, 0 no effect, 100 complete control), Pigweed” value ([14]; 125 g ai/ha) was 100. The “Plant response rating (0 to 100 scale, 0 no effect, 100 complete control), Ryegrass, Italian” value ([15]; 31 g ai/ha) was 0, the “Plant response rating (0 to 100 scale, 0 no effect, 100 complete control), Ryegrass, Italian” value ([15]; 125 g ai/ha) was 10 and the “Plant response rating (0 to 100 scale, 0 no effect, 100 complete control), Foxtail, Giant” value ([16]; 31 g ai/ha) was 60. The “Plant response rating (0 to 100 scale, 0 no effect, 100 complete control), Foxtail, Giant” value ([16]; 125 g ai/ha) was 100, the “Plant response rating, Lambsquarters” value ([17]; 16 g ai/ha) was 20 and the “Plant response rating, Lambsquarters” value ([17]; 31 g ai/ha) was 35. The “Plant response rating, Lambsquarters” value ([17]; 62 g ai/ha) was 65, the “Plant response rating, Lambsquarters” value ([17]; 125 g ai/ha) was 70 and the “Plant response rating, Soybean” value (soybean (Glycine max); 16 g ai/ha) was 40. The “Plant response rating, Soybean” value (soybean (Glycine max); 31 g ai/ha) was 45, the “Plant response rating, Soybean” value (soybean (Glycine max); 62 g ai/ha) was 60 and the “Plant response rating, Soybean” value (soybean (Glycine max); 125 g ai/ha) was 70. For the same compound, the “Plant response rating, Oat, Wild” value (wild oat (Avena fatua); 16 g ai/ha) was 0, the “Plant response rating, Oat, Wild” value (wild oat (Avena fatua); 31 g ai/ha) was 0 and the “Plant response rating, Oat, Wild” value (wild oat (Avena fatua); 62 g ai/ha) was 0. For the same compound, the “Plant response rating, Oat, Wild” value (wild oat (Avena fatua); 125 g ai/ha) was 0.
